Reference: BigSolDB 2.1

CC(=O)Nc1ccc(OC(=O)c2ccccc2OC(C)=O)cc1 showed a solubility (mole fraction) (in 1,4-dioxane, 293.15 K) of 0.00169, a solubility (mole fraction) (in 1,4-dioxane, 298.15 K) of 0.00204 and a solubility (mole fraction) (in 1,4-dioxane, 303.15 K) of 0.0025. It also gave a solubility (mole fraction) (in 1,4-dioxane, 308.15 K) of 0.00298, a solubility (mole fraction) (in 1,4-dioxane, 313.15 K) of 0.0035 and a solubility (mole fraction) (in 1,4-dioxane, 318.15 K) of 0.00427. For the same compound, the solubility (mole fraction) (in 2-butanone, 278.15 K) was 0.0025, the solubility (mole fraction) (in 2-butanone, 283.15 K) was 0.00267 and the solubility (mole fraction) (in 2-butanone, 288.15 K) was 0.00287. For the same compound, the solubility (mole fraction) (in 2-butanone, 293.15 K) was 0.00308, the solubility (mole fraction) (in 2-butanone, 298.15 K) was 0.00333 and the solubility (mole fraction) (in 2-butanone, 303.15 K) was 0.00361. The solubility (mole fraction) (in 2-butanone, 308.15 K) was 0.00392, the solubility (mole fraction) (in 2-butanone, 313.15 K) was 0.00429 and the solubility (mole fraction) (in 2-butanone, 318.15 K) was 0.00465. It also gave a solubility (mole fraction) (in DMF, 278.15 K) of 0.0172, a solubility (mole fraction) (in DMF, 283.15 K) of 0.0182 and a solubility (mole fraction) (in DMF, 288.15 K) of 0.0192. It also gave a solubility (mole fraction) (in DMF, 293.15 K) of 0.0203, a solubility (mole fraction) (in DMF, 298.15 K) of 0.0215 and a solubility (mole fraction) (in DMF, 303.15 K) of 0.0228. It also gave a solubility (mole fraction) (in DMF, 308.15 K) of 0.0242, a solubility (mole fraction) (in NMP, 278.15 K) of 0.0209 and a solubility (mole fraction) (in NMP, 283.15 K) of 0.024. For the same compound, the solubility (mole fraction) (in NMP, 288.15 K) was 0.0272, the solubility (mole fraction) (in NMP, 293.15 K) was 0.0304 and the solubility (mole fraction) (in NMP, 298.15 K) was 0.0341. For the same compound, the solubility (mole fraction) (in NMP, 303.15 K) was 0.0378, the solubility (mole fraction) (in NMP, 308.15 K) was 0.0417 and the solubility (mole fraction) (in NMP, 313.15 K) was 0.0464. It also gave a solubility (mole fraction) (in NMP, 318.15 K) of 0.0512, a solubility (mole fraction) (in acetonitrile, 278.15 K) of 0.000681 and a solubility (mole fraction) (in acetonitrile, 283.15 K) of 0.000855. For the same compound, the solubility (mole fraction) (in acetonitrile, 288.15 K) was 0.00105, the solubility (mole fraction) (in acetonitrile, 293.15 K) was 0.00134 and the solubility (mole fraction) (in acetonitrile, 298.15 K) was 0.00164. It also gave a solubility (mole fraction) (in acetonitrile, 303.15 K) of 0.00199, a solubility (mole fraction) (in acetonitrile, 308.15 K) of 0.00236 and a solubility (mole fraction) (in acetonitrile, 313.15 K) of 0.00283. For the same compound, the solubility (mole fraction) (in acetonitrile, 318.15 K) was 0.00339, the solubility (mole fraction) (in ethanol, 278.15 K) was 0.000158 and the solubility (mole fraction) (in ethanol, 283.15 K) was 0.00021. The solubility (mole fraction) (in ethanol, 288.15 K) was 0.000265, the solubility (mole fraction) (in ethanol, 293.15 K) was 0.000326 and the solubility (mole fraction) (in ethanol, 298.15 K) was 0.000403. The solubility (mole fraction) (in ethanol, 303.15 K) was 0.000486, the solubility (mole fraction) (in ethanol, 308.15 K) was 0.000589 and the solubility (mole fraction) (in ethanol, 313.15 K) was 0.000733. It also gave a solubility (mole fraction) (in ethanol, 318.15 K) of 0.000907, a solubility (mole fraction) (in ethyl acetate, 278.15 K) of 0.000392 and a solubility (mole fraction) (in ethyl acetate, 283.15 K) of 0.000519. The solubility (mole fraction) (in ethyl acetate, 288.15 K) was 0.000651, the solubility (mole fraction) (in ethyl acetate, 293.15 K) was 0.000789 and the solubility (mole fraction) (in ethyl acetate, 298.15 K) was 0.000983. For the same compound, the solubility (mole fraction) (in ethyl acetate, 303.15 K) was 0.00119, the solubility (mole fraction) (in ethyl acetate, 308.15 K) was 0.00141 and the solubility (mole fraction) (in ethyl acetate, 313.15 K) was 0.00169. The solubility (mole fraction) (in ethyl acetate, 318.15 K) was 0.00198, the solubility (mole fraction) (in isopropanol, 278.15 K) was 7.6e-05 and the solubility (mole fraction) (in isopropanol, 283.15 K) was 0.000107. For the same compound, the solubility (mole fraction) (in isopropanol, 288.15 K) was 0.000139, the solubility (mole fraction) (in isopropanol, 293.15 K) was 0.000178 and the solubility (mole fraction) (in isopropanol, 298.15 K) was 0.000217. For the same compound, the solubility (mole fraction) (in isopropanol, 303.15 K) was 0.000262, the solubility (mole fraction) (in isopropanol, 308.15 K) was 0.000323 and the solubility (mole fraction) (in isopropanol, 313.15 K) was 0.000394. The solubility (mole fraction) (in isopropanol, 318.15 K) was 0.000493, the solubility (mole fraction) (in methanol, 278.15 K) was 0.000143 and the solubility (mole fraction) (in methanol, 283.15 K) was 0.000182. It also gave a solubility (mole fraction) (in methanol, 288.15 K) of 0.000228, a solubility (mole fraction) (in methanol, 293.15 K) of 0.000278 and a solubility (mole fraction) (in methanol, 298.15 K) of 0.000337. It also gave a solubility (mole fraction) (in methanol, 303.15 K) of 0.000403, a solubility (mole fraction) (in methanol, 308.15 K) of 0.000485 and a solubility (mole fraction) (in methanol, 313.15 K) of 0.000601. It also gave a solubility (mole fraction) (in methanol, 318.15 K) of 0.000745, a solubility (mole fraction) (in n-butanol, 278.15 K) of 0.000179 and a solubility (mole fraction) (in n-butanol, 283.15 K) of 0.000235. It also gave a solubility (mole fraction) (in n-butanol, 288.15 K) of 0.0003, a solubility (mole fraction) (in n-butanol, 293.15 K) of 0.000375 and a solubility (mole fraction) (in n-butanol, 298.15 K) of 0.000459. It also gave a solubility (mole fraction) (in n-butanol, 303.15 K) of 0.000557, a solubility (mole fraction) (in n-butanol, 308.15 K) of 0.000683 and a solubility (mole fraction) (in n-butanol, 313.15 K) of 0.000852. The solubility (mole fraction) (in n-butanol, 318.15 K) was 0.00104, the solubility (mole fraction) (in n-propanol, 278.15 K) was 8.8e-05 and the solubility (mole fraction) (in n-propanol, 283.15 K) was 0.000128. For the same compound, the solubility (mole fraction) (in n-propanol, 288.15 K) was 0.000173, the solubility (mole fraction) (in n-propanol, 293.15 K) was 0.000214 and the solubility (mole fraction) (in n-propanol, 298.15 K) was 0.000264. For the same compound, the solubility (mole fraction) (in n-propanol, 303.15 K) was 0.000327, the solubility (mole fraction) (in n-propanol, 308.15 K) was 0.000402 and the solubility (mole fraction) (in n-propanol, 313.15 K) was 0.000496. The solubility (mole fraction) (in n-propanol, 318.15 K) was 0.000647, the solubility (mole fraction) (in toluene, 278.15 K) was 1.3e-05 and the solubility (mole fraction) (in toluene, 283.15 K) was 1.8e-05. The solubility (mole fraction) (in toluene, 288.15 K) was 2.5e-05, the solubility (mole fraction) (in toluene, 293.15 K) was 3.4e-05 and the solubility (mole fraction) (in toluene, 298.15 K) was 4.3e-05. For the same compound, the solubility (mole fraction) (in toluene, 303.15 K) was 5.5e-05, the solubility (mole fraction) (in toluene, 308.15 K) was 6.8e-05 and the solubility (mole fraction) (in toluene, 313.15 K) was 8.6e-05. For the same compound, the solubility (mole fraction) (in toluene, 318.15 K) was 0.000108.
